Reference: ChEMBL document CHEMBL1147236, “Semiplenamides A-G, fatty acid amides from a Papua New Guinea collection of the marine cyanobacterium Lyngbya semiplena” (J Nat Prod, 2003)

Assays:
[1] = Toxicity in Artemia salina after 24 hrs; assay type: organism-based; conditions: in vivo, read-out: LD50
Cannabinoid receptor 1 = Cannabinoid receptor 1 (Rattus norvegicus, UniProt P20272); assay: Displacement of [3H]SR141716A from CB1 receptor in CD rat brain membranes; assay type: cell membranes, Membrane
[2] = Inhibition of AMT in rat RBL-2H3 cells assessed as [14C]anandamide uptake; assay type: cell-based

Cannabinoid receptor 1, sequence (P20272 whole entry): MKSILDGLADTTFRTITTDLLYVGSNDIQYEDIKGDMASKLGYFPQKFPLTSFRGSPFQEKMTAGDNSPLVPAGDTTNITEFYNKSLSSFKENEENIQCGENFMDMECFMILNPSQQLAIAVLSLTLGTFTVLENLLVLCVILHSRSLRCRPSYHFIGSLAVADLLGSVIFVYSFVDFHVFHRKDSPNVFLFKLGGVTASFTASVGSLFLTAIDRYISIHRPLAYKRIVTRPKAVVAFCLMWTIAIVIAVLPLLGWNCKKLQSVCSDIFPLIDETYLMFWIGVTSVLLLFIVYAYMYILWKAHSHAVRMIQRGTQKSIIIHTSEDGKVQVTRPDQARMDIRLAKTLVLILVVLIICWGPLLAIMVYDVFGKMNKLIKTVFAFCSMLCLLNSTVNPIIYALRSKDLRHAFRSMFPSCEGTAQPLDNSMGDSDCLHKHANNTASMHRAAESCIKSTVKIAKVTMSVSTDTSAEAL

| SMILES | LC50 at 24 h [1] | Ki (Cannabinoid receptor 1) | IC50 [2] |
| --- | --- | --- | --- |
| CCCCCCCCCCCCC/C=C/CC/C=C(\C)C(=O)NCCO [SEMIPLENAMIDE A] | 1.4 µM | 19.5 µM | 18.1 µM |
| CCCCCCCCCCCCC/C=C/CC/C=C(\C)C(=O)NCCOC(C)=O [SEMIPLENAMIDE B] | 2.5 µM | 18.7 µM |  |
| CCCCCCCCCCCCC/C=C(\C)C(=O)N[C@@H](C)CO [SEMIPLENAMIDE C] | 1.5 µM |  |  |
| CCCCCCCCCCCCCCCCC/C=C(\C)C(=O)N[C@@H](C)COC(C)=O [SEMIPLENAMIDE D] | 18 µM |  |  |
| CCCCCCCCCCCCCCC/C=C(\C)C(=O)N[C@@H](C)COC(C)=O [SEMIPLENAMIDE E] | 19 µM |  |  |
| CCCCCCCCCCCCCCC[C@H]1O[C@]1(C)C(=O)NC(C)CO (stereo partly specified) [SEMIPLENAMIDE F] | 1.4 µM |  |  |
| CCCCCCCCCCCCCCC[C@H]1O[C@]1(C)C(=O)NC(C)COC(C)=O (stereo partly specified) [SEMIPLENAMIDE G] | 2.4 µM | 17.9 µM |  |
